This note sets out measurements from US6187781A, “4-Tetrahydropyridylpyrimidine derivatives” (Taisho Pharmaceutical Co., Ltd., priority 1997, dated 2001).

Molecules are shown by their SMILES. Counter-ions that a name gives are not always drawn.

The target of this assay is T1, CRF receptor (Rattus norvegicus, UniProt P35353).
T1 sequence (P35353 24-415): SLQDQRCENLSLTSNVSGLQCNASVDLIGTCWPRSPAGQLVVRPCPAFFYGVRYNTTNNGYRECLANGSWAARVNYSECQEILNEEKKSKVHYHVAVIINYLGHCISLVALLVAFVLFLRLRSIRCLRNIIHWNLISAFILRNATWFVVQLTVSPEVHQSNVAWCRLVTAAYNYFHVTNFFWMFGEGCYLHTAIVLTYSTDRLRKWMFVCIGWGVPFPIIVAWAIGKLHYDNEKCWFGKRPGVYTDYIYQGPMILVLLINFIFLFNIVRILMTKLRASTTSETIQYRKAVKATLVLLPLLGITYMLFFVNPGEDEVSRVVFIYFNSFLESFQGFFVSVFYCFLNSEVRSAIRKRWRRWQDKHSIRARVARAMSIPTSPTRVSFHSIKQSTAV
Put plainly: CRF receptor Binding Assay ([125I]-CRF, rat frontal cortical membranes). The following applies: 125I-CRF 0.2 nM; rat frontal cortical membranes 0.3 mg-protein/ml; 25° C., 2 hours; nonspecific binding with 1 μM CRF; read-out: IC50 (concentration of the test compound which 50% inhibits the 125I-CRF binding).
For the compound `CCN(c1nc(C)cc(N2CC=C(c3ccc(Cl)cc3)CC2)n1)c1ccc(C(C)C)cc1SC` [Compound 1-51], the IC50 worked out at 0.0215 µM. For `CCN(c1nc(C)cc(N2CCC=C(c3cc(F)cc(F)c3)C2)n1)c1ccc(C(C)C)cc1SC` [Compound 2-13] the value was 0.0823 µM. For the compound `CCN(c1nc(C)cc(N2CC=C(c3ccccc3)CC2)n1)c1ccc(C(C)C)cc1Br` [Compound 1-01, 2-[N-(2-bromo-4-isopropylphenyl)-N-ethylamino]-4-(4-phenyl-1,2,3,6-tetrahydropyridin-1-yl)-6-methylpyrimidine hydrochloride], the IC50 was determined as 0.0661 µM. As to `CCN(c1nc(C)cc(N2CC=C(c3cccc(F)c3)CC2)n1)c1ccc(C(C)C)cc1Br` [Compound 1-02], the IC50 amounted to 0.0221 µM. The result for `CCN(c1nc(C)cc(N2CC=C(c3ccco3)CC2)n1)c1ccc(C(C)C)cc1Br` [Compound 1-79, 2-[N-(2-bromo-4-isopropylphenyl)-N-ethylamino]-4-[4-(furan-2-yl)-1,2,3,6-tetrahydropyridin-1-yl]-6-methylpyrimidine] reads 0.0445 µM; that for `C#CCN(c1nc(C)cc(N2CCC=C(c3ccc(F)cc3)C2)n1)c1ccc(C(C)C)cc1SC` [Compound 2-07], 0.0202 µM. As for `C#CCN(c1nc(C)cc(N2CC=C(c3cccc(F)c3)CC2)n1)c1ccc(C(C)C)cc1SC` [Compound 1-08], the IC50 stood at 0.089 µM. As for `CCN(c1nc(C)cc(N2CCC=C(c3cccc(F)c3)C2)n1)c1ccc(C(C)C)cc1Br` [Compound 2-02], the IC50 was found to be 0.0962 µM. Take `CCN(c1nc(C)cc(N2CC=C(c3cccs3)CC2)n1)c1ccc(C(C)C)cc1Br` [Compound 1-78, 2-[N-(2-bromo-4-isopropylphenyl)-N-ethylamino]-4-[4-(thiophen-2-yl)-1,2,3,6-tetrahydropyridin-1-yl]-6-methylpyrimidine]: the IC50 amounted to 0.0522 µM. For the compound `CCN(c1nc(C)cc(N2CCC=C(c3ccccc3C)C2)n1)c1ccc(C(C)C)cc1SC` [Compound 2-15, 2-[N-(4-isopropyl-2-methylthiophenyl)-N-ethylamino]-4-[5-(2-methylphenyl)-1,2,3,6-tetrahydropyridin-1-yl]-6-methylpyrimidine hydrochloride], the IC50 was found to be 0.0108 µM. Regarding `CCN(c1nc(C)cc(N2CC=C(c3ccc(Cl)cc3)CC2)n1)c1ccc(C(C)C)cc1Br` [Compound 1-41], the IC50 came to 0.0389 µM. Consider `CCN(c1nc(C)cc(N2CC=C(c3ccc(F)cc3)CC2)n1)c1ccc(C(C)C)cc1Br` [Compound 1-15], for which the IC50 was 0.0793 µM. Consider `CCN(c1nc(C)cc(N2CC=C(c3cccc(F)c3)CC2)n1)c1ccc(C(C)C)cc1SC` [Compound 1-06], for which the IC50 came out at 0.0105 µM.

For the compound `C#CCN(c1nc(C)cc(N2CC=C(c3cccc(Cl)c3)CC2)n1)c1ccc(C(C)C)cc1SC` [Compound 1-36], the IC50 was found to be 0.0515 µM. Turning to `C#CCN(c1nc(C)cc(N2CC=C(c3cccc(Cl)c3)CC2)n1)c1ccc(C(C)C)cc1Br` [Compound 1-31], the IC50 was determined as 0.0962 µM. Regarding `CCN(c1nc(C)cc(N2CCC=C(c3ccc(F)cc3)C2)n1)c1ccc(C(C)C)cc1Br` [Compound 2-04], the IC50 turned out to be 0.0823 µM. For `CCN(c1nc(C)cc(N2CCC=C(c3ccc(F)cc3)C2)n1)c1ccc(N(C)C)cc1Br` [Compound 2-06], the IC50 stood at 0.0962 µM. The result for `CCN(c1nc(C)cc(N2CC=C(c3ccc(F)cc3)CC2)n1)c1ccc(C(C)C)cc1SC` [Compound 1-16] reads 0.0811 µM; that for `CCN(c1nc(C)cc(N2CC=C(c3cccc(C(F)(F)F)c3)CC2)n1)c1ccc(N(C)C)cc1Br` [Compound 1-67], 0.0614 µM; that for `CCN(c1nc(C)cc(N2CCC=C(c3cccc(C)c3)C2)n1)c1ccc(C(C)C)cc1SC` [Compound 2-18], 0.0704 µM.

As to `CCN(c1nc(C)cc(N2CCC=C(c3ccccc3)C2)n1)c1ccc(C(C)C)cc1Br` [Compound 2-01, 2-[N-(2-bromo-4-isopropylphenyl)-N-ethylamino]-4-(5-phenyl-1,2,3,6-tetrahydropyridin-1-yl)-6-methylpyrimidine hydrochloride], the IC50 amounted to 0.089 µM. On to `CCN(c1nc(C)cc(N2CC=C(c3ccc(Cl)c(Cl)c3)CC2)n1)c1ccc(C(C)C)cc1SC` [Compound 1-62], for which the IC50 was 0.032 µM. `CCN(c1nc(C)cc(N2CC=C(c3ccc(OC)cc3)CC2)n1)c1ccc(C(C)C)cc1Br` [Compound 1-77]: the IC50 was determined as 0.0824 µM. The result for `CCN(c1nc(C)cc(N2CCC=C(c3ccc(C)cc3)C2)n1)c1ccc(C(C)C)cc1SC` [Compound 2-19] reads 0.0704 µM. `CCN(c1nc(C)cc(N2CC=C(c3ccc(F)cc3)CC2)n1)c1ccc(N(C)C)cc1Br` [Compound 1-17]: the IC50 turned out to be 0.0739 µM. On to `CCN(c1nc(C)cc(N2CC=C(c3cccc(C(F)(F)F)c3)CC2)n1)c1ccc(C(C)C)cc1Br` [Compound 1-66], for which the IC50 turned out to be 0.0464 µM. Regarding `CCN(c1nc(C)cc(N2CC=C(c3cccc(F)c3)CC2)n1)c1ccc(N(C)C)cc1Br` [Compound 1-12], the IC50 worked out at 0.0385 µM. Turning to `CCN(c1nc(C)cc(N2CC=C(c3ccc(F)c(F)c3)CC2)n1)c1ccc(N(C)C)cc1Br` [Compound 1-22], the IC50 turned out to be 0.089 µM.

For `CCN(c1nc(C)cc(N2CC=C(c3ccc(Cl)cc3)CC2)n1)c1ccc(C2CCCC2)cc1SC` [Compound 1-54], the IC50 is 0.0658 µM. As for `CCN(c1nc(C)cc(N2CC=C(c3cccc(C(F)(F)F)c3)CC2)n1)c1ccc(C(C)C)cc1SC` [Compound 1-68], the IC50 turned out to be 0.0385 µM. The result for `CCN(c1nc(C)cc(N2CC=C(c3ccc(Cl)cc3)CC2)n1)c1ccc(N(C)C)cc1Br` [Compound 1-55] reads 0.0454 µM; that for `CCN(c1nc(C)cc(N2CC=C(c3cccc(Cl)c3)CC2)n1)c1ccc(C(C)C)cc1Br` [Compound 1-30, 2-[N-(2-bromo-4-isopropylphenyl)-N-ethylamino]-4-[4-(3-chlorophenyl)-1,2,3,6-tetrahydropyridin-1-yl]-6-methylpyrimidine hydrochloride], 0.0248 µM; that for `CCN(c1nc(C)cc(N2CCC=C(c3cccc(F)c3)C2)n1)c1ccc(C(C)C)cc1SC` [Compound 2-03], 0.0823 µM.

`C#CCN(c1nc(C)cc(N2CC=C(c3ccc(Cl)cc3)CC2)n1)c1ccc(C(C)C)cc1Br` [Compound 1-46]: the IC50 is 0.0313 µM. `CCN(c1nc(C)cc(N2CCC=C(c3cccc(Cl)c3)C2)n1)c1ccc(C(C)C)cc1SC` [Compound 2-09]: the IC50 was determined as 0.0977 µM. For `CCN(c1nc(C)cc(N2CC=C(c3ccc(Cl)cc3)CC2)n1)c1ccc(Br)cc1Br` [Compound 1-57] the value was 0.0658 µM; for `CCN(c1nc(C)cc(N2CC=C(c3cccc(F)c3)CC2)n1)c1c(C)cc(C)cc1C` [Compound 1-14], 0.0739 µM; for `C#CCN(c1nc(C)cc(N2CC=C(c3cc(F)cc(F)c3)CC2)n1)c1ccc(C(C)C)cc1SC` [Compound 1-27], 0.0126 µM. For the compound `CCN(c1nc(C)cc(N2CC=C(c3cccc(F)c3)CC2)n1)c1ccc(C(C)C)cc1I` [Compound 1-05], the IC50 was found to be 0.0276 µM. Consider `CCN(c1nc(C)cc(N2CC=C(c3ccc(F)c(F)c3)CC2)n1)c1ccc(C(C)C)cc1SC` [Compound 1-21], for which the IC50 stood at 0.0811 µM. As to `CCN(c1nc(C)cc(N2CC=C(c3cc(F)cc(F)c3)CC2)n1)c1ccc(C(C)C)cc1Br` [Compound 1-25], the IC50 came to 0.0464 µM. For the compound `CCN(c1nc(C)cc(N2CC=C(c3ccc(Cl)c(Cl)c3)CC2)n1)c1ccc(C(C)C)cc1Br` [Compound 1-61], the IC50 is 0.0673 µM.

Take `CCN(c1nc(C)cc(N2CC=C(c3ccc(F)c(F)c3)CC2)n1)c1ccc(C(C)C)cc1Br` [Compound 1-20]: the IC50 was 0.0498 µM. For `CCN(c1nc(C)cc(N2CC=C(c3cccc(C(F)(F)F)c3)CC2)n1)c1c(C)cc(C)cc1C` [Compound 1-71] the value was 0.0559 µM. On to `CCN(c1nc(C)cc(N2CC=C(c3cccc(C)c3)CC2)n1)c1ccc(C(C)C)cc1Br` [Compound 1-73], for which the IC50 was 0.0658 µM. On to `CCN(c1nc(C)cc(N2CC=C(c3cc(F)cc(F)c3)CC2)n1)c1ccc(C(C)C)cc1SC` [Compound 1-26], for which the IC50 was 0.0351 µM. Turning to `CCN(c1nc(C)cc(N2CC=C(c3cccc(Cl)c3)CC2)n1)c1ccc(C(C)C)cc1SC` [Compound 1-34], the IC50 is 0.0201 µM. Regarding `C#CCN(c1nc(C)cc(N2CC=C(c3cccc(F)c3)CC2)n1)c1ccc(C(C)C)cc1Br` [Compound 1-03], the IC50 is 0.0322 µM. For `CCN(c1nc(C)cc(N2CC=C(c3cccc(Cl)c3)CC2)n1)c1ccc(N(C)C)cc1Br` [Compound 1-33] the value was 0.0559 µM; for `CCN(c1nc(C)cc(N2CC=C(c3ccc(C)cc3)CC2)n1)c1ccc(C(C)C)cc1Br` [Compound 1-74], 0.0629 µM. For `CCN(c1nc(C)cc(N2CCC=C(c3ccc(F)cc3)C2)n1)c1ccc(C(C)C)cc1SC` [Compound 2-05] the value was 0.0276 µM.
